From ChEMBL document CHEMBL5584220, “Design, synthesis, and biological evaluation of aralkyl piperazine and piperidine derivatives targeting SSRI/5-HT1A/5-HT7” (Bioorg Med Chem, 2024)

Columns and labels:
[1] = target: T1, 5-hydroxytryptamine receptor 1A (Homo sapiens, UniProt P08908)
T1 sequence (P08908 whole entry): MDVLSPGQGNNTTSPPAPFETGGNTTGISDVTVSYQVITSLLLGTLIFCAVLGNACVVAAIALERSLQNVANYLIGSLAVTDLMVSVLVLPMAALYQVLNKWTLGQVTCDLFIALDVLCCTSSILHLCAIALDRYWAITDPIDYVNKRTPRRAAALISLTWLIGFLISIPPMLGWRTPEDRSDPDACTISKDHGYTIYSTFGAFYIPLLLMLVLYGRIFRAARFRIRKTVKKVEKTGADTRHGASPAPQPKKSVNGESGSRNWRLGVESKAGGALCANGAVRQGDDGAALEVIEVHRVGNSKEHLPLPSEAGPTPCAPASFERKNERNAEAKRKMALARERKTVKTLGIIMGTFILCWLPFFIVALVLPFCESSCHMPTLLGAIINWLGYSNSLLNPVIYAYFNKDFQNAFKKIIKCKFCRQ

[2] = target: 5-hydroxytryptamine receptor 7 (Homo sapiens, UniProt P34969)
[3] = target: Sodium-dependent serotonin transporter (Homo sapiens, UniProt P31645); type: cell-based, HEK293
[4] = target: Voltage-gated inwardly rectifying potassium channel KCNH2 (Homo sapiens, UniProt Q12809)
in vitro [5] = conditions: human, liver microsomes
hERG (KCNH2) = hERG (KCNH2) (Homo sapiens, UniProt Q12809); assay: in vitro; conditions: HEK293 cells that express hERG
in vitro [6] = conditions: mouse, liver microsomes

Chain of 5-hydroxytryptamine receptor 7 (P34969 whole entry): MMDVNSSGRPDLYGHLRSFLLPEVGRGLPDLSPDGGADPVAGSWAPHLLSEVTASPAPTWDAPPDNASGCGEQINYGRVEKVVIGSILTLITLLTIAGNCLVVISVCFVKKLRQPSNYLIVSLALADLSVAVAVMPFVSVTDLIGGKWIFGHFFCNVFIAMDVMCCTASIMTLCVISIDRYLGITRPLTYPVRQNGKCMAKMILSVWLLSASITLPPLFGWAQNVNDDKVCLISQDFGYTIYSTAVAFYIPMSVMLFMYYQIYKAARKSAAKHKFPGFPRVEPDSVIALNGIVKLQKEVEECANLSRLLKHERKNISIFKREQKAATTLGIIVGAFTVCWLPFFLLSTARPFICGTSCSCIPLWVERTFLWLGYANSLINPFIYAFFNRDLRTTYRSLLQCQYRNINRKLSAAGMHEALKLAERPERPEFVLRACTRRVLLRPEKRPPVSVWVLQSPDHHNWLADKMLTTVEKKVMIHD
Chain of Sodium-dependent serotonin transporter (P31645 whole entry): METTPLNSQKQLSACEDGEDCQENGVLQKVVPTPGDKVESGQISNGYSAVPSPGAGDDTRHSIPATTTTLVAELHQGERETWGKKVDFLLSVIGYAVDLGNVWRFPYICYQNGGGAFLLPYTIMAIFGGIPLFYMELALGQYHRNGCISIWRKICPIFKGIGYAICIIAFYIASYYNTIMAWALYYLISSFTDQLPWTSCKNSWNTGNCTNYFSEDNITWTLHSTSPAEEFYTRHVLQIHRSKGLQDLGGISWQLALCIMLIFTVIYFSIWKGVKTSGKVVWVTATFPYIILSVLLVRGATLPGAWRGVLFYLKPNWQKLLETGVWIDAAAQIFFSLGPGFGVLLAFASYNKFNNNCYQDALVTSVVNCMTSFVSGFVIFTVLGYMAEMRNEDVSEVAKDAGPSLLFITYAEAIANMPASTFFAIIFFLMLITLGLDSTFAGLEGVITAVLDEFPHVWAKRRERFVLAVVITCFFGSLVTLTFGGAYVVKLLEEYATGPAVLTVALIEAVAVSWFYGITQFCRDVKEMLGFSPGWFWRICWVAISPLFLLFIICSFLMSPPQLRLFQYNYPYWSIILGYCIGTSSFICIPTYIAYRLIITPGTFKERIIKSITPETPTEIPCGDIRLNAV
Chain of Voltage-gated inwardly rectifying potassium channel KCNH2 (Q12809 whole entry): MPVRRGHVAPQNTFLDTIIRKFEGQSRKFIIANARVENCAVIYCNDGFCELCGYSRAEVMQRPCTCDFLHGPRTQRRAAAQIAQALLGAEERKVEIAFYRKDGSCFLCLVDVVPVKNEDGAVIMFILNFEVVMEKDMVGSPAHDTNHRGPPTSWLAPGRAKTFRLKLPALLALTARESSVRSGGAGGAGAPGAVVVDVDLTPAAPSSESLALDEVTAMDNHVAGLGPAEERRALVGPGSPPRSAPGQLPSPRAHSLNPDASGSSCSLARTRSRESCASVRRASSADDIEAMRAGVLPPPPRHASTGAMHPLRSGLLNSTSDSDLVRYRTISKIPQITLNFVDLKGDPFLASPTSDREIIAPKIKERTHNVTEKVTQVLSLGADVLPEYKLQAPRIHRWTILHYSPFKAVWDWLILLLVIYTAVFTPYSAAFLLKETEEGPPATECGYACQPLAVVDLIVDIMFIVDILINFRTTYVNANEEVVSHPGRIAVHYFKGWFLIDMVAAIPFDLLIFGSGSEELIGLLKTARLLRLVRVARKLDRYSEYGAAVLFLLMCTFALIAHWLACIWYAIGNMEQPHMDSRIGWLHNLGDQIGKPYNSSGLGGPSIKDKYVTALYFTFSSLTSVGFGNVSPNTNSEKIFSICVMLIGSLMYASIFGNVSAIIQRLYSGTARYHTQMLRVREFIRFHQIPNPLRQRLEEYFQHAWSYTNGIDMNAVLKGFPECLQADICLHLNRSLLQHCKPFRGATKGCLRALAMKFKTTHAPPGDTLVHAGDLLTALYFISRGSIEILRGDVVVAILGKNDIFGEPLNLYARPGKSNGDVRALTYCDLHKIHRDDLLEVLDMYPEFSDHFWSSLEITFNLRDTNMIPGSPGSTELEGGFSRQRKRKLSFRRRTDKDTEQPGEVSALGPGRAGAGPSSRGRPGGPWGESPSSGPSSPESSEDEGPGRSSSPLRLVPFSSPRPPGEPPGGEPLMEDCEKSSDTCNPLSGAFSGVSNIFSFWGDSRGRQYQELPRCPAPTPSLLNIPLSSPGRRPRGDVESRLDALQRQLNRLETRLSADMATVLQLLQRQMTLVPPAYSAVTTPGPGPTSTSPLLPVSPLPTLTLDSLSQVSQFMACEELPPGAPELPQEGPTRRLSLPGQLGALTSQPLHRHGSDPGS
Chain of hERG (KCNH2) (Q12809 whole entry): as above

Compound | Ki [1] | IC50 [3] | IC50 [4] | microsomal CLint at 1 µM (in vitro [5]) | inhibition at 1 µM (hERG (KCNH2)) | microsomal CLint at 1 µM (in vitro [6]) | further results
COc1ccccc1N1CCN(CCCCCC(=O)NC2CCCc3ccccc32)CC1 (centres undefined) | 6.64 nM |  |  |  |  |  | Ki [2]: 8.6 nM
CSc1ccccc1N1CCN(CCCCCC(=O)NC2CCCc3ccccc32)CC1 (centres undefined) | 0.22 nM |  |  |  |  |  | Ki [2]: 52.7 nM
CCOc1ccccc1N1CCN(CCCCCn2cnc3sc(C)c(C)c3c2=O)CC1 | 2.99 nM |  |  |  |  |  | Ki [2]: 1.03 nM
Fc1ccc(C2CCN(CCCc3c[nH]c4ccc(F)cc34)CC2)c(-c2ccccc2)c1 | 5.7 nM | 251 nM | 160 nM | 27.8 µL/min/mg |  |  | Ki [2]: 26.8 nM
CSc1ccccc1N1CCN(CCCCc2c[nH]c3ccc(F)cc23)CC1 |  |  |  | 27.8 µL/min/mg | 82.7% | 156 µL/min/mg | 
CSc1ccccc1C1CCN(CCCc2c[nH]c3ccc(F)cc23)CC1 |  |  |  | 24.5 µL/min/mg | 96.6% | 62.3 µL/min/mg | 
Fc1ccc(C2=CCN(CCCc3c[nH]c4ccc(F)cc34)CC2)c(-c2ccccc2)c1 |  |  |  | 22.1 µL/min/mg | 82.6% | 202 µL/min/mg | 
CSc1ccccc1N1CCN(CCCCCc2c[nH]c3ccc(F)cc23)CC1 |  |  |  | 90.1 µL/min/mg | 84.5% | 83.2 µL/min/mg | 
CCSc1ccccc1N1CCN(CCCc2c[nH]c3ccc(F)cc23)CC1 |  |  |  | 39.5 µL/min/mg | 90.1% | 47.6 µL/min/mg | 
NC(=O)c1ccc2[nH]cc(CCCN3CCC(c4ccc(F)cc4-c4ccccc4)CC3)c2c1 | < 0.04 nM | > 10000 nM |  |  |  |  | 
CCOc1ccccc1N1CCN(CCCc2c[nH]c3ccc(F)cc23)CC1 |  | 0.85 nM | 160 nM |  |  |  | 
OC(CCN1CCC(c2ccc(F)cc2-c2ccccc2)CC1)c1c[nH]c2ccc(F)cc12 (centres undefined) |  |  | 530 nM |  |  |  | 
COc1ccccc1N1CCN(CCCc2c[nH]c3ccc(F)cc23)CC1 |  | 0.85 nM | 310 nM |  |  |  | 
CSc1ccccc1N1CCN(CCCc2c[nH]c3ccc(F)cc23)CC1 |  | 1.9 nM | 390 nM |  |  |  | 
CSc1ccccc1N1CCN(CCCc2c[nH]c3ccc(C#N)cc23)CC1 |  |  |  | 127 µL/min/mg | 97.6% | 208 µL/min/mg | 
COc1ccc2c(c1)[C@]13CCCC[C@@H]1[C@H](C2)N(C)CC3 [DEXTROMETHORPHAN] |  |  |  | 28 µL/min/mg |  |  | 
